This passage reports EC50 results from PubChem BioAssay AID2610 (Broad Institute, 2010).

SMILES strings stand for the structures. Records with an inconclusive call do not appear. The source made the active and inactive calls.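 The calls were made as follows: active = EC50 no more than tenfold above the top concentration tested, with valid fit and all samples agreeing; inconclusive = flat fit at 30 to 70% inhibition, poor fit, or split samples; inactive = EC50 beyond tenfold the top concentration tested.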 Where only a bound is given, the exact number is not on record here.

This assay has as its system BJeLR fibroblast viability, Alamar Blue fluorescence, 48 h. The assay is described as follows: BJeLR fibroblast growth inhibition, viability readout – cell-based, alamar blue fluorescence, 48 h, cherrypicked samples, dose response (AID 2610).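 Also: BJ fibroblasts with hTERT plus SV40 large and small T and HRAS V12; EC50 for loss of viable cells so potency reflects cytotoxic compounds.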
The term EC50 denotes the concentration that produces a half-maximal response. Regarding `CCC1=Nc2cc(C(=O)NCc3ccco3)ccc2Sc2ccc(C)cc21`, the EC50 is less than 0.104 µM.

Consider `N#CCc1ccc(NC(=O)/C=C/c2ccc([N+](=O)[O-])o2)cc1`, for which the EC50 was 1.1 µM.

Consider `COc1ccc2c(c1)sc(N)[n+]2Cc1cc(C)cc2cccnc12`, for which the EC50 was 0.266 µM.

As for `CCNC(=S)NNC(=O)c1cc(-c2ccc(OCC)cc2)nc2ccccc12`, the EC50 was > 13.3 µM (inactive).

Regarding `O=C1c2cccc3cc([N+](=O)[O-])cc(c23)C(=O)N1CCN1CCCC1`, the EC50 is 0.409 µM.

On to `Cc1cc(-n2c(SCC(=O)NCCC3=CCCCC3)nc3n[nH]c(C)c3c2=N)ccc1Cl`, for which the EC50 was > 13.3 µM (inactive).

`COc1cc([C@@H]2c3cc4c(cc3[C@@H](NC3CCN(Cc5ccccc5)CC3)[C@H]3COC(=O)[C@H]23)OCO4)cc(OC)c1O`: the EC50 was 0.133 µM.

On to `COc1cc(NC(=O)c2cccs2)c(OC)cc1NC(=O)CCC(=O)Nc1ccc2ncccc2c1`, for which the EC50 was > 13.3 µM (inactive).

As for `Cn1ncc2c(O/N=C(\N)c3ccc(C(C)(C)C)cc3)ncnc21`, the EC50 is 2.34 µM.

As to `CCN1/C(=C/c2ccc3cc(C)ccc3[n+]2CC)Sc2ccc3sccc3c21`, the EC50 was less than 0.104 µM.

As for `COc1ccc(C)cc1Nc1c2c(nc3ccccc13)CCC2`, the EC50 was 0.292 µM.

Regarding `COc1ccc(N/C=C/C(=O)c2cc(OC)c(OC)c(OC)c2)cc1`, the EC50 was 0.206 µM.

As to `COC(=O)c1[nH]c2c(c1C)C(=O)CC(c1cccs1)C2` (stereo unspecified), the EC50 is 0.152 µM.

Turning to `COc1ccc2c(C)nc(Nc3nc(-c4ccccc4)cc(=O)[nH]3)nc2c1`, the EC50 is 1.2 µM.

On to `C/C(=N\NC(=O)c1ccc(F)cc1)c1ccccn1`, for which the EC50 was 0.491 µM.

Consider `Cc1nn(-c2ccccc2)c(Cl)c1CN(C(=O)CCl)c1ccc(Cl)cc1`, for which the EC50 was 0.521 µM.

As for `Cc1ccc(/C=N/NC(=O)c2n[nH]c3c2CCCC3)cc1`, the EC50 is less than 0.104 µM.

As to `CCOC(=O)c1c(C)[nH]c2c1-c1ccccc1C(=O)C2=O`, the EC50 was 0.492 µM.

On to `CCCOc1ccc(C(=O)C(CCC(CNCC)C(=O)c2ccc(OCCC)cc2)CNCC)cc1` (stereo unspecified), for which the EC50 is 0.638 µM.

`FC(F)(F)c1nnc2c(Sc3ccc(Cl)cc3)nc3ccccc3n12`: the half-maximal effective concentration (EC50) is 0.531 µM.

In the case of `O=c1c2ccccc2nc(/C=C/c2ccc([N+](=O)[O-])o2)n1-c1ccc(O)cc1`, the EC50 is 3.66 µM.

For `O=C1SC(Cc2ccccc2)C(=O)N1c1ccccc1` (stereo unspecified), the EC50 is 2.35 µM.

Take `COc1ccc(OC)c2sc(N(CCCN(C)C)C(=O)c3ccc(S(=O)(=O)N4CCc5ccccc5C4)cc3)nc12`: the EC50 was 0.108 µM.

Take `COC(=O)C[C@]1(C(=O)OC)CN(C#N)N(c2ccc(Cl)cc2)C12c1ccccc1-c1ccccc12`: the EC50 was 0.762 µM.

For the compound `COc1ccc(N/N=C(/N=Nc2nc(C)cc(=O)[nH]2)c2ccccc2)cc1`, the EC50 was 0.446 µM.

For the compound `COc1ccc(N(C(=O)CCl)C(C(=O)NCCc2ccccc2)c2cccs2)cc1Cl` (stereo unspecified), the EC50 was less than 0.0502 µM.

With `CC1CN(S(=O)(=O)c2ccc(C(=O)NCCCn3ccnc3)cc2)CC(C)O1` (stereo unspecified), the EC50 was 0.436 µM.

In the case of `CCN(CC)c1ccc(/C=N/NC(=O)c2nnn(-c3nonc3N)c2C(C)C)c(O)c1`, the EC50 is 0.565 µM.

With `CCCCC(=O)NC(c1ccc(C(C)C)cc1)c1ccc2cccnc2c1O` (stereo unspecified), the EC50 is 6.42 µM.

As for `Cc1ccc(N2C(=O)c3cccc4c([N+](=O)[O-])ccc(c34)C2=O)c2cccnc12`, the EC50 was 0.523 µM.

Regarding `Nc1nc(N)c2c(ccc3nccc32)[nH]1`, the EC50 was > 13.3 µM (inactive).

Turning to `CCCCCCCN(C(=O)CCl)c1cccc(C)c1`, the EC50 is 0.429 µM.

With `C[C@@H]1C=CC(=O)O[C@@H]1c1ccc(Cl)cc1`, the EC50 is 4.19 µM.

As for `CC(Oc1ccc(Cl)cc1Cl)c1nc(-c2ccc(NC(=O)c3cccnc3)cc2)no1` (stereo unspecified), the EC50 was 1.58 µM.

`C#CCOc1ccc(C2C3=C(COC3=O)Nc3cc4c(cc32)OCO4)cc1OC` (stereo unspecified): the EC50 is less than 0.104 µM.

With `CCN(CC)CCCNC(=O)c1cc(-c2ccccc2)c(N2CCCCC2)s1`, the EC50 is > 13.3 µM (inactive).

Regarding `CCCCc1c(C)c(C#N)c2nc3ccccc3n2c1Cl`, the EC50 is 0.587 µM.

As to `COc1ccc(C(=O)c2cc([N+](=O)[O-])ccc2N2CCOCC2)cc1`, the EC50 is less than 0.104 µM.

Take `O=C(CCCCCCCCCCC(=O)NCc1cccnc1)NCc1cccnc1`: the EC50 was > 13.3 µM (inactive).

On to `COc1ccc(C2=CC(=O)C=CC2=O)cc1`, for which the EC50 was > 13.3 µM (inactive).

Turning to `CCN(CC)c1ccc(/C=N/NC(=O)c2ccco2)c(O)c1`, the EC50 was 0.804 µM.

Consider `N=c1c2c(-c3ccccc3)c(-c3ccccc3)n(Cc3ccco3)c2ncn1CCCn1ccnc1`, for which the EC50 is 1.27 µM.

Regarding `COC(=O)C1=C(C)N(Cc2ccccc2)C(=NCc2cccc(C(F)(F)F)c2)N[C@H]1c1cccc(F)c1`, the EC50 was > 13.3 µM (inactive).

As for `COc1cc(/C=C/[N+](=O)[O-])ccc1O`, the EC50 is 6.5 µM.

For `CCOc1ccc(CC(=O)Nc2ccc(NC(=O)c3ccco3)cc2)cc1OCC`, the EC50 is 2.06 µM.

With `CCN1C(=O)C(=Cc2cccc(OC)c2Oc2ccc([N+](=O)[O-])cc2[N+](=O)[O-])SC1=S`, the EC50 was 1.05 µM.

Consider `CC1CC(C)CN(S(=O)(=O)c2ccc(C(=O)NCCCn3ccnc3)cc2)C1` (stereo unspecified), for which the EC50 is 0.15 µM.

Take `Cc1ccc(/C=C2\SC(=S)N(CCCC(=O)N3CCOCC3)C2=O)cc1`: the EC50 is 3.58 µM.

Consider `CCOC(=O)/C(=C\c1ccc([N+](=O)[O-])cc1)C(=O)c1cc(C(C)=O)c(Nc2ccccc2)s1`, for which the EC50 was 0.958 µM.

Consider `O=C(Nc1nc2ccccc2[nH]1)c1ccccc1F`, for which the EC50 is > 13.3 µM (inactive).

Regarding `O=[N+]([O-])c1c(Nc2ccccn2)cc(Cl)c2nonc12`, the EC50 was 2.11 µM.

In the case of `COc1cc(C2c3cc4c(cc3C(OC3OC5COC(c6cccs6)OC5C(O)C3O)C3COC(=O)C23)OCO4)cc(OC)c1O` (stereo unspecified), the EC50 is 0.129 µM.

Take `S=c1nc[nH]c2nc[nH]c12`: the EC50 is > 13.3 µM (inactive).

As for `O=c1c2ccccc2cnn1-c1nc2ccccc2[nH]1`, the EC50 was > 13.3 µM (inactive).

For the compound `COc1ccc2[nH]c3c(NCCC4=CCCCC4)ncnc3c2c1`, the EC50 is > 13.3 µM (inactive).

With `C/C(=N\NC(=O)c1ccccc1F)c1ccccn1`, the EC50 was 4.14 µM.

`CC(C)c1onc(C(=O)N2CCN(C(c3ccccc3)c3ccccc3)CC2)c1[N+](=O)[O-]`: the EC50 was 0.522 µM.

With `c1ccc(-c2ccc(-c3nc(-c4ccccn4)no3)cc2)cc1`, the EC50 was > 13.3 µM (inactive).

Turning to `CCN1/C(=C/C(C)=C/c2sc3ccccc3[n+]2CC)Sc2ccccc21`, the EC50 was 0.152 µM.

Take `COc1ccccc1/C=C1\SC(=O)N(CCC(=O)NCCCn2ccnc2)C1=O`: the EC50 was > 13.3 µM (inactive).

For `CN(Cc1cnc2nc(N)nc(N)c2n1)c1ccc(C(=O)N[C@@H](CCC(=O)O)C(=O)O)cc1`, the EC50 was > 13.3 µM (inactive).

`Cc1occc1C(=O)N/N=C/c1ccc2c(c1)OCO2`: the EC50 is > 13.3 µM (inactive).

As for `FC(F)(F)c1nnc2c(Sc3ccccc3)nc3ccc(Cl)cc3n12`, the EC50 was 0.577 µM.

As to `Cc1ccc(-c2nn(CC(=O)NCc3cc(-c4nn(C)c(=O)c5ccccc45)ccc3C)c(=O)c3ccccc23)cc1`, the EC50 was > 13.3 µM (inactive).

With `COc1ccc(NC(=O)C(=O)NCC2CCCN2S(=O)(=O)c2ccc(C)cc2)cc1` (stereo unspecified), the EC50 is less than 0.104 µM.

Turning to `COc1ccc(CCNc2nnc(Sc3nnnn3-c3ccccc3)s2)cc1OC`, the EC50 was 0.344 µM.

As for `COc1ccc(C)cc1NS(=O)(=O)c1ccc(-c2cnc(C3CC3)o2)cc1`, the EC50 was less than 0.104 µM.

In the case of `O=C(c1cc([N+](=O)[O-])ccc1N1CCOCC1)N1CCN(c2ccccc2)CC1`, the EC50 was less than 0.104 µM.

`O=C(Sc1cccc2cccnc12)c1ccccc1Br`: the EC50 is 0.337 µM.

For the compound `CCn1cc(C(=O)NCc2ccco2)c(=O)c2cc(S(=O)(=O)N3CC(C)CC(C)C3)ccc21` (stereo unspecified), the EC50 was > 13.3 µM (inactive).

On to `Cc1cc(C)c2nc(C)cc(N/N=C/c3ccc(O)cc3)c2c1`, for which the EC50 is 0.575 µM.

In the case of `COc1ccc(S(=O)(=O)N2c3cc(Cl)ccc3Oc3nc4ccccc4nc32)cc1`, the EC50 is 0.193 µM.

In the case of `C=C1C(=O)C=C2CN(C(=O)c3ccccc3)[C@@](Cc3ccc(F)cc3)(C(=O)OC)[C@@H]12`, the EC50 was 0.14 µM.

As for `Cn1cccc1/C=C1\SC(=Nc2ccc(O)cc2)NC1=O`, the EC50 is less than 0.104 µM.

For `Cc1ccc(N=Cc2c(C)[nH]n(-c3nc4ccccc4[nH]3)c2=O)cc1`, the EC50 is > 13.3 µM (inactive).

Turning to `O=C(/C=C/c1ccc([N+](=O)[O-])o1)NNC(=O)c1ccc(F)cc1`, the EC50 is 2.66 µM.

Turning to `COc1cc(OC)cc(C(=O)N[C@H](C(=O)Nc2nc3ccccc3[nH]2)C(C)C)c1`, the EC50 was 0.324 µM.

`CCN(CC)Cc1c(O)ccc2c1O/C(=C\C=C\c1ccccc1)C2=O`: the EC50 was > 13.3 µM (inactive).

As to `COc1cccc2c1C(=O)c1c(O)c3c(c(O)c1C2=O)C[C@@](O)(C(=O)CO)C[C@@H]3O[C@H]1C[C@H](N)[C@H](O)[C@H](C)O1`, the EC50 was less than 0.104 µM.

On to `CCOC(=O)c1ccc(NC(=O)Nc2ccon2)cc1`, for which the EC50 was less than 0.104 µM.

Take `Cc1onc(C(=O)N2CCN(C(c3ccccc3)c3ccccc3)CC2)c1[N+](=O)[O-]`: the EC50 is 0.762 µM.

As to `COc1ccc(N=C2S/C(=C\c3ccc(Cl)c([N+](=O)[O-])c3)C(=O)N2CCN(C)C)cc1`, the EC50 was 1.37 µM.

As for `c1ccc2nc(-c3nc4ccccc4o3)ccc2c1`, the EC50 was > 13.3 µM (inactive).

Regarding `O=C(/C=C\c1ccco1)Nc1cc([N+](=O)[O-])ccc1F`, the EC50 is 0.256 µM.

For `COCCCN=C1NN=C(c2cc(C)n(Cc3ccco3)c2C)CS1`, the half-maximal effective concentration (EC50) was less than 0.104 µM.

As for `CCN(CC)CCN1C(=O)/C(=C\c2ccc(Cl)c([N+](=O)[O-])c2)SC1=Nc1ccc(OC)cc1`, the EC50 is 0.563 µM.

As for `CSc1cc(-c2ccccc2)n(Cc2ccccc2Cl)c(=O)c1C#N`, the EC50 is 0.709 µM.

As to `Cc1ccc(C2CC(c3cccs3)=NN2C(=O)CCl)cc1` (stereo unspecified), the EC50 was 0.727 µM.

In the case of `CCCCN=C[C@]12CCC(O)CC1(O)CCC1[C@@H]2CC[C@]2(C)[C@H](C3C=CC(=O)O3)CCC12O` (stereo partly specified), the EC50 was 0.315 µM.

Consider `Cc1cccc2cc(C#N)c(SCC(=O)N3CC(=O)Nc4ccccc43)nc12`, for which the EC50 is less than 0.104 µM.

On to `CCCc1cc(=O)[nH]c(SCC(=O)c2c(N)n(CC(C)C)c(=O)n(C)c2=O)n1`, for which the EC50 was > 13.3 µM (inactive).
